Laboratory results published in patent US20030144346A1, “Methods and compositions for regulation of 5-alpha reductase activity” (priority 1997, published 2003).

How the values were obtained:
[1] = target: T1, type 1 human 5α-reductase (HRED1) (Homo sapiens, UniProt P18405); experiment: Whole cell assay of 5α-reductase, type 1 isoenzyme; format: cell-based; parameters: expressed in transfected cells; host or cells: rat 1A cells infected with pMV7 retrovirus;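 note: intact rat 1A cells engineered to express the human type 1 5α-reductase isozyme serve as the enzyme source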
T1 sequence (P18405 1-259): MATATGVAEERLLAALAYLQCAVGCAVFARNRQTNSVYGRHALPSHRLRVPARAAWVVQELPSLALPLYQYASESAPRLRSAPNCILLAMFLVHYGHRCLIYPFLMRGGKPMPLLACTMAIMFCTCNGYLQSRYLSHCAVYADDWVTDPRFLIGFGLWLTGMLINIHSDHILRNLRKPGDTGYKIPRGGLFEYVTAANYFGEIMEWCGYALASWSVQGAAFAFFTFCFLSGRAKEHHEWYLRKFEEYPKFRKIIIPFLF

[2] = target: T2, type 2 human 5α-reductase (HRED2) (Homo sapiens, UniProt P31213); experiment: Whole cell assay of 5α-reductase, type 2 isoenzyme; format: cell-based; parameters: expressed in transfected cells; host or cells: rat 1A cells infected with pMV7 retrovirus; details: for inhibition at 100 µM / HRED2 % Inhibition @ 100 μM: Table 7; for IC50: Table 7, read-out: HCRED2 IC50;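 for all read-outs here: intact rat 1A cells genetically modified to carry human type 2 5α-reductase served as the enzyme source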
T2 sequence (P31213 1-254): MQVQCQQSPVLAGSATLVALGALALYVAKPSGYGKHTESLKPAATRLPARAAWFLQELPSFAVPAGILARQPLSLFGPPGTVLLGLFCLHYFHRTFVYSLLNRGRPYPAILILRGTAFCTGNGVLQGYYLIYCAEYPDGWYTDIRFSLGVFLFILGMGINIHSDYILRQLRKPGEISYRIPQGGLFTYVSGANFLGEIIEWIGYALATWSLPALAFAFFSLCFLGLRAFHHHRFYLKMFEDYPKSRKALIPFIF

[3] = target: T1, type 1 human 5α-reductase (HRED1); experiment: Cell free assay of 5α-reductase, microsomes of rat 1A cells expressing type 1 isoenzyme (HRED1); format: biochemical; parameters: expressed in transfected cells; host or cells: rat 1A cells infected with pMV7 retrovirus; microsomes; details: for HRED1 % Inhibition @ 100 μM: Table 5; for inhibitory activity against type 1 isoenzyme, in words: cell-free assay;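 for all read-outs here: microsomes from rat 1A cells expressing human type 1 5α-reductase, conversion of radiolabeled testosterone to dihydrotestosterone quantified by thin layer chromatography with radioanalytic scanning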
[4] = target: T2, type 2 human 5α-reductase (HRED2); experiment: Cell free assay of 5α-reductase, microsomes of rat 1A cells expressing type 2 isoenzyme (HRED2); format: biochemical; parameters: expressed in transfected cells; host or cells: rat 1A cells infected with pMV7 retrovirus; microsomes; details: for HRED2 % Inhibition @ 100 μM: Table 5;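 for all read-outs here: labeled testosterone and its product dihydrotestosterone measured in microsomal reaction extracts via thin layer chromatography plus radioanalytic scanning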
[5] = whole cell assay, Table 7, read-out: HCRED1 IC50
[6] = cell free assay, Table 5 epigallocatechin derivatives, read-out: HRED1 IC50
[7] = cell free assay, Table 5 epigallocatechin derivatives, read-out: HRED2 IC50
[8] = 100 uM, cell free assay, Table 2
[9] = cell free assay, Table 2 catechols, read-out: HRED1 IC50
[10] = cell free assay, Table 2 catechols, read-out: HRED2 IC50
[11] = HCRED1 IC50, whole cell assay, Table 7
[12] = read-out: HRED1 % Inhibition @ 100 μM
[13] = 100 uM, cell free assay, Table 2, read-out: HRED1 % Inhibition @ 100 uM
[14] = 100 uM, cell free assay, Table 2, read-out: HRED2 % Inhibition @ 100 uM

Row | SMILES | IC50 [2] | HRED1 % Inhibition @ 100 μM ([1]; whole cell assay, Table 7) | IC50 [1, 5] | HRED2 % Inhibition @ 100 μM [2] | HRED1 % Inhibition @ 100 μM ([3]; cell free assay) | IC50 [3, 6] | HRED2 % Inhibition @ 100 μM ([4]; 100 μM, cell free assay) | IC50 [4, 7] | also measured
1 | Cc1cc2c(C(C)C)c(O)c(O)c(C=O)c2c(O)c1-c1c(C)cc2c(C(C)C)c(O)c(O)c(C=O)c2c1O [Gossypol] | 6 µM | – | – | – | – | – | – | – | IC50 [1]: 7 µM; inhibition at 100 µM ([1]; whole cell assay, Table 7): 100%; inhibitory activity in the whole cell assay, type 1 isoenzyme, in words ([1]; whole cell assay): active; inhibition at 100 µM [2]: 99%; IC50 [3]: 7 µM; inhibition at 100 µM ([3]; read-out: HRED1 % Inhibition @ 100 uM): 99%; IC50 [4]: 21 µM; inhibition at 100 µM ([4]; read-out: HRED2 % Inhibition @ 100 uM): 99%
2 | COc1cc(CCNC(=O)C=Cc2ccc(O)c(O)c2)ccc1O [HZIV 90] | > 100 µM | 34% | > 100 µM | 14% | – | – | – | – | HRED1 % Inhibition @ 100 uM [3, 8]: 23%; IC50 [3, 9]: > 100 µM; HRED2 % Inhibition @ 100 uM [4, 8]: 13%; IC50 [4, 10]: > 100 µM
3 | CCCCCC=CCC=CCC=CCCCCC(=O)OC1Cc2c(O)cc(O)cc2OC1c1cc(O)c(O)c(O)c1 (stereo not drawn) [HZIV 142] | 14 µM | 99% | 8 µM | 98% | 97% | 25 µM | 93% | 63 µM | –
4 | CCCCCCCCCCCCCCCCCC(=O)OC1Cc2c(O)cc(O)cc2OC1c1cc(O)c(O)c(O)c1 (stereo not drawn) [HZIV 148] | 74 µM | 90% | 42 µM | 81% | 31% | > 100 µM | 0% | > 100 µM | –
5 | CCCCC=CCCCCCCCC(=O)OC1Cc2c(O)cc(O)cc2OC1c1cc(O)c(O)c(O)c1 (stereo not drawn) [HZIV 160] | 8 µM | 99% | 7 µM | 98% | 99% | 29 µM | 96% | 76 µM | inhibitory activity in the whole cell assay, type 1 isoenzyme, in words ([1]; whole cell assay): effective; inhibitory activity against type 1 isoenzyme, in words [3]: effective
6 | COc1cc(C(=O)C=Cc2ccc(N(C)C)cc2)cc(OC)c1OC [HZIV-82] | > 100 µM | 79% | 3 µM | 15% | – | – | – | – | inhibitory activity in the whole cell assay, type 1 isoenzyme, in words ([1]; whole cell assay): very active; HRED1 % Inhibition @ 100 uM [3, 8]: 43%; IC50 [3, 9]: > 100 µM; inhibitory activity against type 1 isoenzyme, in words [3]: little activity; HRED2 % Inhibition @ 100 uM [4, 8]: 0%; IC50 [4, 10]: > 100 µM
7 | O=c1c(O)c(-c2ccc(O)cc2)oc2cc(O)cc(O)c12 [Kaempferol] | 20 µM | – | 79 µM | – | – | – | – | – | inhibition at 100 µM ([1]; whole cell assay, Table 7): 60%; inhibitory activity in the whole cell assay, type 2 isoenzyme, in words [2]: significant inhibitory activity; inhibition at 100 µM [2]: 85%; inhibition at 100 µM ([3]; 100 uM, cell free assay, Table 1, read-out: HRED1 % Inhibition @ 100 uM): 22%; IC50 ([3]; cell free assay, Table 1 flavanoids, read-out: HRED1 IC50): > 100 µM; inhibition at 100 µM ([4]; 100 uM, cell free assay, Table 1, read-out: HRED2 % Inhibition @ 100 uM): 62%; IC50 ([4]; cell free assay, Table 1 flavanoids, read-out: HRED2 IC50): 12 µM
8 | CCCCC/C=C\C/C=C\CCCCCCCC(=O)O [Linoleic Acid, Linoleic Acid C18:2 CIS 9,12] | 25 µM | – | 40 µM | – | – | – | – | – | IC50 ([3]; cell free assay, Table 6 fatty acids, read-out: HRED1 IC50): 9 µM; IC50 ([4]; cell free assay, Table 6 fatty acids, read-out: HRED2 IC50): 19 µM
9 | CC1=CC(=O)c2ccccc2C1=O [Menadione] | 79 µM | – | – | – | – | – | – | – | inhibition at 100 µM ([1]; whole cell assay, Table 7): 82%; IC50 [1, 11]: 51 µM; inhibitory activity in the whole cell assay, type 1 isoenzyme, in words ([1]; whole cell assay): moderate activity; inhibition at 100 µM [2]: 62%; IC50 [3]: 6 µM; inhibitory activity against type 1 isoenzyme, in words [3]: potent cell-free inhibitors; inhibition at 100 µM [3, 12]: 77%; inhibition at 100 µM ([4]; 100 μM, cell free assay, Table 4, read-out: HRED2 % Inhibition @ 100 μM): 81%; IC50 ([4]; cell free assay, Table 4 quinones, read-out: HRED2 IC50): 5 µM; inhibitory activity against type 2 isoenzyme, in words ([4]; cell-free assay): potent cell-free inhibitors
10 | COC(=O)c1cc(O)c(O)c(O)c1 [Methylgallate] | > 100 µM | – | > 100 µM | – | – | – | – | – | inhibition at 100 µM ([1]; whole cell assay, Table 7): 0%; inhibition at 100 µM [2]: 0%; inhibition at 100 µM [3, 13]: 5%; IC50 [3, 9]: > 100 µM; inhibition at 100 µM [4, 14]: 3%; IC50 [4, 10]: > 100 µM
11 | CCCCCCCCOC(=O)c1cc(O)c(O)c(O)c1 [Octyl Gallate] | 18 µM | – | 7 µM | – | – | – | – | – | inhibition at 100 µM ([1]; whole cell assay, Table 7): 99%; inhibitory activity in the whole cell assay, type 1 isoenzyme, in words ([1]; whole cell assay): active; inhibition at 100 µM [2]: 94%; inhibition at 100 µM [3, 13]: 99%; IC50 [3, 9]: 27 µM; inhibition at 100 µM [4, 14]: 90%; IC50 [4, 10]: 58 µM
12 | CCCCCCCC/C=C\CCCCCCCC(=O)O [Oleic Acid, Oleic Acid C18:1 CIS 9] | > 100 µM | – | – | – | – | – | – | – | inhibition at 100 µM ([1]; whole cell assay, Table 7): 58%; IC50 [1, 11]: 83 µM; inhibition at 100 µM [2]: 45%; IC50 [3]: 10 µM; inhibition at 100 µM [3, 12]: 99%; IC50 [4]: 42 µM; inhibition at 100 µM ([4]; read-out: HRED2 % Inhibition @ 100 μM): 86%

Now from value to compound, other results behind:

Row | IC50 [2] | HRED1 % Inhibition @ 100 μM ([1]; whole cell assay, Table 7) | IC50 [1, 5] | HRED2 % Inhibition @ 100 μM [2] | HRED1 % Inhibition @ 100 μM ([3]; cell free assay) | IC50 [3, 6] | HRED2 % Inhibition @ 100 μM ([4]; 100 μM, cell free assay) | IC50 [4, 7] | SMILES | also measured
13 | > 100 µM | 12% | > 100 µM | 7% | 94% | 311 µM | 20% | > 100 µM | COc1cc(C(=O)OC2Cc3c(O)cc(O)cc3OC2c2cc(O)c(O)c(O)c2)cc(OC)c1OC (stereo not drawn) [HZIV 63] | –
14 | > 100 µM | 40% | > 100 µM | 34% | 93% | 29 µM | 51% | 99 µM | Cc1c(O)cc(C(=O)OC2Cc3c(O)cc(O)cc3OC2c2cc(O)c(O)c(O)c2)cc1O (stereo not drawn) [HZIV 68] | –
15 | 62 µM | 83% | 43 µM | 72% | 97% | 29 µM | 21% | > 100 µM | COc1cc(C(=O)OC2Cc3c(O)cc(O)cc3OC2c2cc(O)c(O)c(O)c2)cc(OC)c1O (stereo not drawn) [HZIV 75] | –
16 | 80 µM | 94% | 64 µM | 62% | 98% | 23 µM | 45% | > 100 µM | CN(C)c1ccc(C(=O)OC2Cc3c(O)cc(O)cc3OC2c2cc(O)c(O)c(O)c2)cc1 (stereo not drawn) [HZIV 92] | –
17 | > 100 µM | 23% | > 100 µM | 2% | 52% | 98 µM | 39% | > 100 µM | O=C(OC1Cc2c(O)cc(O)cc2OC1c1cc(O)c(O)c(O)c1)c1ccncc1 (stereo not drawn) [HZIV 107] | –
18 | 57 µM | 97% | 49 µM | 96% | 99% | 23 µM | 97% | 66 µM | O=C(OC1Cc2c(O)cc(O)cc2OC1c1cc(O)c(O)c(O)c1)c1ccc2ccccc2c1 (stereo not drawn) [HZIV 120] | –
19 | > 100 µM | 12% | > 100 µM | 7% | 88% | 49 µM | 38% | > 100 µM | O=C(OC1Cc2c(O)cc(O)cc2OC1c1cc(O)c(O)c(O)c1)C1CCCCC1 (stereo not drawn) [HZIV 144] | –
20 | > 100 µM | 8% | > 100 µM | 9% | 35% | > 100 µM | 8% | > 100 µM | CC(=O)OC1Cc2c(O)cc(O)cc2OC1c1cc(O)c(O)c(O)c1 (stereo not drawn) [HZIV 145] | –
21 | > 100 µM | 10% | > 100 µM | 0% | 90% | 47 µM | 39% | > 100 µM | CCCCCC(=O)OC1Cc2c(O)cc(O)cc2OC1c1cc(O)c(O)c(O)c1 (stereo not drawn) [HZIV 169] | –
